Experiment: Population pharmacokinetic (PopPK) model (RCC patients and healthy volunteers)
Type: in vivo, human
Method: The PopPK model was developed using nonlinear mixed effects modeling methodology (NONMEM v7.3) that incorporated 1650 measurable PK concentrations from 345 subjects (Table 10.1).
Covariates were evaluated for effects on apparent plasma clearance (CL/F) and apparent volume of distribution of the central compartment (VF) (Table 10.2).
In FIG. 10.1: • F1=fraction of dose in the first depot; • F2=fraction of dose in the second depot; • Ka=depot 1 absorption rate constant • Ka2=depot 2 absorption rate constant; • ALAG1=depot 1 absorption lag time; • ALAG2=depot 2 absorption lag time • Vc/F=apparent volume of distribution (central compartment); • Vp/F=apparent volume of distribution (peripheral compartment); • Q/F=apparent flow between plasma (central) and peripheral compartments; • CL/F=apparent plasma clearance

[1] = final PopPK model parameter estimate
[2] = final PopPK model parameter estimate, RCC patients and healthy volunteers

COc1cc2nccc(Oc3ccc(NC(=O)C4(C(=O)Nc5ccc(F)cc5)CC4)cc3)c2cc1OC [cabozantinib]
Predicted steady-state average concentration (20 mg dose level): 375 ng/mL | Predicted steady-state average concentration (40 mg dose level): 750 ng/mL | Predicted steady-state average concentration (60 mg dose level): 1125 ng/mL | CL/F (oral clearance), PopPK estimate (White male): 2.23 L/h | Vc/F, PopPK estimate (White male): 81.5 L | ALAG1 (depot 1 absorption lag time) [1]: 0.459 h | ALAG2 (depot 2 absorption lag time) [1]: 16.8 h | Q/F (apparent flow between plasma (central) and peripheral compartments) [1]: 14.2 L/h | Vp/F (apparent volume of distribution, peripheral compartment) [1]: 213 L | Ka2 (depot 2 absorption rate constant) [2]: 0.102 h⁻¹ | Ka (depot 1 absorption rate constant) [2]: 0.568 h⁻¹ | CL/F (apparent plasma clearance) (final PopPK model parameter estimate, White male): 2.23 L/h | Inter-individual variability of CL/F (human, in vivo): 46 % CV | Lower CL/F in Asian vs White subjects (human, in vivo): 27% | Lower CL/F in female vs male subjects (human, in vivo): 21% | Vd/F (human, plasma, oral, final PopPK model parameter estimate, White male, read-out: Vc/F (apparent volume of distribution, central compartment)): 81.5 L | Vd (human, plasma, oral, subject, read-out: Terminal phase volume of distribution, PopPK estimate): 319 L
